What was measured:
[1] = tested on: MOOVA (Monochoria); experiment: Preemergence weed control under flooded paddy conditions; format: in vivo, Monochoria vaginalis; conditions: rated 3-4 weeks after treatment
Summary of the method: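 Visual injury scored 0-9 against control three to four weeks post-treatment, greenhouse-grown. Application: acetone/water (50/50) solutions dosed directly into flood water (1.5-3 cm over silt loam, planted top 0.5 cm), roughly 0.0313 to 0.500 kg/ha active ingredient.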

[2] = tested on: SETVI (Foxtail, Green); experiment: Postemergence herbicidal evaluation; format: in vivo, Setaria viridis; conditions: for SETVI herbicidal rating: postemergence
Summary of the method: (§1)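 Each compound, dispersed in an acetone/water mix (50/50) carrying 0.5% TWEEN 20, is nozzle-sprayed at 40 psi on approximately two-week-old seedlings at about 0.0156–0.500 kg/ha. Plants are assessed 4–5 weeks afterward on a 0–9 scale relative to control; duplicate tests are averaged.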

[3] = tested on: ECHORC (Watergrass (Calif.)); experiment: Preemergence weed control under flooded paddy conditions; format: in vivo, Echinochloa oryzoides; conditions: rated 3-4 weeks after treatment
Summary of the method: (§2)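 Herbicidal effect is scored visually on a 0-9 scale against an untreated control, three to four weeks after compounds are pipetted into the flood water (1.5 to 3 cm deep) over seeds planted in silt loam at 0.5 cm depth. Rates: about 0.0313 to 0.500 kg/ha.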

[4] = tested on: GALAP (Galium); experiment: Postemergence herbicidal evaluation; format: in vivo, Galium aparine; conditions: for GALAP herbicidal rating: postemergence
Summary of the method: as §1

[5] = tested on: SETVI (Foxtail, Green); experiment: Preemergence herbicidal evaluation; format: in vivo, Setaria viridis; conditions: rated 4-5 weeks after treatment
Summary of the method: (§3)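 Herbicidal effect scored visually, 0-9, at 4 to 5 weeks against a control; compound applied preemergence by aqueous acetone spray to seeded soil at about 0.0156 to 0.500 kg/ha.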

[6] = tested on: SAGPY (Arrowhead (Pygmaea)); experiment: Postemergence weed control under flooded paddy conditions; format: in vivo, Sagittaria pygmaea; conditions: postemergence weeds, 3-4 weeks after treatment
Summary of the method: (§4)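 Injury ratings (0–9 scale covering stand, vigor, malformation, size, chlorosis and overall appearance versus control) were made three to four weeks after treatment. Test material, about 0.0313 to 0.500 kg/ha a.i. in 50/50 v/v aqueous/acetone, was added to flood water 1.5 to 3 cm deep over 3 to 5 cm weeds and 1.5 to 2.5 leaf rice.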

[7] = tested on: CYPIR (Rice Flatsedge); experiment: Preemergence weed control under flooded paddy conditions; format: in vivo, Cyperus iria; conditions: rated 3-4 weeks after treatment
Summary of the method: as §2

[8] = tested on: ZEAMX (Corn, Field); experiment: Preemergence herbicidal evaluation; format: in vivo, Zea mays; conditions: rated 4-5 weeks after treatment
Summary of the method: as §3

[9] = tested on: IPOHE (Morningglory, Ivyleaf); experiment: Postemergence herbicidal evaluation; format: in vivo, Ipomoea hederacea; conditions: for IPOHE herbicidal rating: postemergence
Summary of the method: as §1

[10] = tested on: IPOHE (Morningglory, Ivyleaf); experiment: Preemergence herbicidal evaluation; format: in vivo, Ipomoea hederacea; conditions: rated 4-5 weeks after treatment
Summary of the method: as §3

[11] = tested on: ECHORC (Watergrass (Calif.)); experiment: Postemergence weed control under flooded paddy conditions; format: in vivo, Echinochloa oryzoides; conditions: postemergence weeds, 3-4 weeks after treatment
Summary of the method: as §4

[12] = tested on: ABUTH (Velvetleaf); experiment: Preemergence herbicidal evaluation; format: in vivo, Abutilon theophrasti; conditions: rated 4-5 weeks after treatment
Summary of the method: as §3

[13] = tested on: TRZAWR (Wheat, Winter, cv Riband); experiment: Postemergence herbicidal evaluation; format: in vivo, Triticum aestivum; conditions: for TRZAWR herbicidal rating: postemergence
Summary of the method: as §1

[14] = tested on: ECHCG (Barnyardgrass); experiment: Preemergence herbicidal evaluation; format: in vivo, Echinochloa crus-galli; conditions: rated 4-5 weeks after treatment
Summary of the method: as §3

COC(=O)CCN1C(=O)CSC1=Nc1cc(-n2c(=O)cc(C(F)(F)F)n(C)c2=O)c(F)cc1Cl [Compound 28, Methyl 2-{{2-chloro-5-[3,6-dihydro-3-methyl-2,6-dioxo-4-(trifluoromethyl)-1(2H)-pyrimidinyl]-4-fluorophenyl}imino}-4-oxo-3-thiazolidinepropionate]
Herbicidal rating MOOVA ([1]; 0.0313 kg/ha): 9.0
Herbicidal rating MOOVA ([1]; 0.0625 kg/ha): 9.0
Herbicidal rating MOOVA ([1]; 0.1250 kg/ha): 9.0
Herbicidal rating MOOVA ([1]; 0.2500 kg/ha): 9.0
Postemergence herbicidal rating SETVI ([2]; Rate 0.0158 kg/ha): 0.0
Postemergence herbicidal rating SETVI ([2]; Rate 0.0315 kg/ha): 9.0
Postemergence herbicidal rating SETVI ([2]; Rate 0.0630 kg/ha): 9.0
Herbicidal rating ECHORC ([3]; 0.0313 kg/ha): 0.0
Herbicidal rating ECHORC ([3]; 0.0625 kg/ha): 4.0
Herbicidal rating ECHORC ([3]; 0.1250 kg/ha): 7.0
Herbicidal rating ECHORC ([3]; 0.2500 kg/ha): 9.0
Postemergence herbicidal rating GALAP ([4]; Rate 0.0158 kg/ha): 3.0
Postemergence herbicidal rating GALAP ([4]; Rate 0.0315 kg/ha): 7.0
Postemergence herbicidal rating GALAP ([4]; Rate 0.0630 kg/ha): 8.0
Preemergence herbicidal rating SETVI ([5]; rate 0.0625 kg/ha): 7.0
Preemergence herbicidal rating SETVI ([5]; rate 0.1250 kg/ha): 9.0
Preemergence herbicidal rating SETVI ([5]; rate 0.2500 kg/ha): 9.0
Herbicidal rating SAGPY ([6]; rate 0.0313 kg/ha): 0.0
Herbicidal rating SAGPY ([6]; rate 0.0625 kg/ha): 0.0
Herbicidal rating SAGPY ([6]; rate 0.1250 kg/ha): 0.0
Herbicidal rating SAGPY ([6]; rate 0.2500 kg/ha): 0.0
Herbicidal rating CYPIR ([7]; 0.0313 kg/ha): 9.0
Herbicidal rating CYPIR ([7]; 0.0625 kg/ha): 9.0
Herbicidal rating CYPIR ([7]; 0.1250 kg/ha): 9.0
Herbicidal rating CYPIR ([7]; 0.2500 kg/ha): 9.0
Preemergence herbicidal rating ZEAMX ([8]; rate 0.0625 kg/ha): 5.0
Preemergence herbicidal rating ZEAMX ([8]; rate 0.1250 kg/ha): 9.0
Preemergence herbicidal rating ZEAMX ([8]; rate 0.2500 kg/ha): 8.0
Postemergence herbicidal rating IPOHE ([9]; Rate 0.0158 kg/ha): 9.0
Postemergence herbicidal rating IPOHE ([9]; Rate 0.0315 kg/ha): 9.0
Postemergence herbicidal rating IPOHE ([9]; Rate 0.0630 kg/ha): 9.0
Preemergence herbicidal rating IPOHE ([10]; rate 0.0625 kg/ha): 0.0
Preemergence herbicidal rating IPOHE ([10]; rate 0.1250 kg/ha): 2.0
Preemergence herbicidal rating IPOHE ([10]; rate 0.2500 kg/ha): 9.0
Herbicidal rating ECHORC ([11]; rate 0.0313 kg/ha): 0.0
Herbicidal rating ECHORC ([11]; rate 0.0625 kg/ha): 4.0
Herbicidal rating ECHORC ([11]; rate 0.1250 kg/ha): 7.0
Herbicidal rating ECHORC ([11]; rate 0.2500 kg/ha): 9.0
Preemergence herbicidal rating ABUTH ([12]; rate 0.1250 kg/ha): 3.0
Preemergence herbicidal rating ABUTH ([12]; rate 0.2500 kg/ha): 9.0
Postemergence herbicidal rating TRZAWR ([13]; Rate 0.0158 kg/ha): 5.0
Postemergence herbicidal rating TRZAWR ([13]; Rate 0.0315 kg/ha): 5.0
Postemergence herbicidal rating TRZAWR ([13]; Rate 0.0630 kg/ha): 6.5
Preemergence herbicidal rating ECHCG ([14]; rate 0.0625 kg/ha): 0.0
Preemergence herbicidal rating ECHCG ([14]; rate 0.1250 kg/ha): 9.0
Preemergence herbicidal rating ECHCG ([14]; rate 0.2500 kg/ha): 9.0

CCOC(=O)CN1C(=O)C(=C2CCCC2)SC1=Nc1cc(-n2c(=O)cc(C(F)(F)F)n(C)c2=O)c(F)cc1Cl [Compound 18, Ethyl 2-{{2-chloro-5-[3,6-dihydro-3-methyl-2,6-dioxo-4-(trifluoromethyl)-1(2H)-pyrimidinyl]-4-fluorophenyl}imino}-5-cyclopentylidene-4-oxo-3-thiazolidineacetate]
Herbicidal rating MOOVA ([1]; 0.1160 kg/ha): 9.0
Herbicidal rating MOOVA ([1]; 0.2310 kg/ha): 9.0
Herbicidal rating MOOVA ([1]; 0.4630 kg/ha): 9.0
SETVI herbicidal rating ([2]; rate 0.0158 kg/ha): 0.0
SETVI herbicidal rating ([2]; rate 0.0315 kg/ha): 1.0
SETVI herbicidal rating ([2]; rate 0.0630 kg/ha): 6.0
Herbicidal rating ECHORC ([3]; 0.1160 kg/ha): 7.0
Herbicidal rating ECHORC ([3]; 0.2310 kg/ha): 7.0
Herbicidal rating ECHORC ([3]; 0.4630 kg/ha): 7.0
GALAP herbicidal rating ([4]; rate 0.0158 kg/ha): 2.0
GALAP herbicidal rating ([4]; rate 0.0315 kg/ha): 5.0
GALAP herbicidal rating ([4]; rate 0.0630 kg/ha): 6.0
SETVI preemergence herbicidal rating ([5]; rate 0.1250 kg/ha): 0.0
SETVI preemergence herbicidal rating ([5]; rate 0.2500 kg/ha): 2.0
Herbicidal rating SAGPY ([6]; rate 0.1160 kg/ha): 0.0
Herbicidal rating SAGPY ([6]; rate 0.2310 kg/ha): 0.0
Herbicidal rating SAGPY ([6]; rate 0.4630 kg/ha): 6.0
Herbicidal rating CYPIR ([7]; 0.1160 kg/ha): 0.0
Herbicidal rating CYPIR ([7]; 0.2310 kg/ha): 0.0
Herbicidal rating CYPIR ([7]; 0.4630 kg/ha): 0.0
ZEAMX preemergence herbicidal rating ([8]; rate 0.1250 kg/ha): 0.0
ZEAMX preemergence herbicidal rating ([8]; rate 0.2500 kg/ha): 0.0
IPOHE herbicidal rating ([9]; rate 0.0158 kg/ha): 2.0
IPOHE herbicidal rating ([9]; rate 0.0315 kg/ha): 6.0
IPOHE herbicidal rating ([9]; rate 0.0630 kg/ha): 9.0
IPOHE preemergence herbicidal rating ([10]; rate 0.1250 kg/ha): 0.0
IPOHE preemergence herbicidal rating ([10]; rate 0.2500 kg/ha): 1.0
Herbicidal rating ECHORC ([11]; rate 0.1160 kg/ha): 7.0
Herbicidal rating ECHORC ([11]; rate 0.2310 kg/ha): 7.0
Herbicidal rating ECHORC ([11]; rate 0.4630 kg/ha): 7.0
ABUTH preemergence herbicidal rating ([12]; rate 0.1250 kg/ha): 2.0
ABUTH preemergence herbicidal rating ([12]; rate 0.2500 kg/ha): 9.0
TRZAWR herbicidal rating ([13]; rate 0.0158 kg/ha): 2.5
TRZAWR herbicidal rating ([13]; rate 0.0315 kg/ha): 3.0
TRZAWR herbicidal rating ([13]; rate 0.0630 kg/ha): 3.0
ECHCG preemergence herbicidal rating ([14]; rate 0.1250 kg/ha): 0.0
ECHCG preemergence herbicidal rating ([14]; rate 0.2500 kg/ha): 0.0

Source: patent US20020137929A1, “1 - (3-heterocyclylphenyl) isothiourea, -isourea, -guanidine and -amidine herbicidal agents” (Intellectual Property Department, BASF Aktiengesellschaft, priority 1998, published 2002)
